In the supplement of paper PMC10307832 one finds relative viability data, which are given here for four cell lines.

Common to all, as to test: relative viability (nuclei count vs DMSO), 5 days (fraction); higher = more cells survive
Compound in test [1]: CS(=O)(=O)c1ccc(C(=O)Nc2ccc(Cl)c(-c3ccccn3)c2)c(Cl)c1 [Vismodegib] + Cc1nc(Nc2ncc(C(=O)Nc3c(C)cccc3Cl)s2)cc(N2CCN(CCO)CC2)n1 [Dasatinib] (partner 0.075 µM)
An outline of the steps:
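Relative viability equals treated-well nuclei counts divided by vehicle-well nuclei counts. Counts came from 4× images of lung cancer cell lines grown in 1536-well plates for 5 days after pin-tool dosing on the day after seeding. Dosing used one drug alone or a fixed anchor-drug dose plus five library-drug doses (not always all listed) in √10 steps, and values are medians of duplicate plates.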

Compound in test [2]: CS(=O)(=O)c1ccc(C(=O)Nc2ccc(Cl)c(-c3ccccn3)c2)c(Cl)c1 [Vismodegib]
An outline of the steps: (§1)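 Viability was defined as treated-well nuclei divided by vehicle-well nuclei, with the median taken over replicate plates. Cells from lung cancer lines sat overnight at 37 °C in 1536-well plates, received five √10-spaced library-drug doses by pinning on vehicle-anchored plates, and grew 5 days without medium change before one-step fixation, permeabilisation and Hoechst staining, 4× imaging and MetaXpress nuclear counts. Only plates with control CV under 25% and at least one doubling were kept.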

Compound in test [3]: N#CC[C@H](C1CCCC1)n1cc(-c2ncnc3[nH]ccc23)cn1 [Ruxolitinib]
A digest of the protocol:
as §1

Compound in test [4]: CS(=O)(=O)c1ccc(-c2cnc(N)c(C(=O)Nc3ccccc3)n2)cc1 [VE-821]
A digest of the protocol:
as §1

As for SK-LU-1, the relative viability in test [1] (first compound 0.08 µM) came out at 0.211; in test [1] (first compound 0.253 µM) it was 0.196; in test [1] (first compound 0.8 µM), 0.204; in test [1] (first compound 2.53 µM), 0.211; in test [1] (first compound 8 µM), 0.211; in test [2] (0.08 µM) it was 1. For the same cell line, the relative viability in test [2] (0.253 µM) amounted to 0.997; in test [2] (0.8 µM) it was 1.07; in test [2] (2.53 µM) it was 0.943; in test [2] (8 µM) it was 1.04; in test [3] (0.08 µM) it was 1.01; in test [3] (0.253 µM), 1.08. The relative viability in test [3] (0.8 µM) came out at 1.12; in test [3] (2.53 µM), 0.966; in test [3] (8 µM) it was 0.907; in test [4] (0.08 µM) it was 1.08; in test [4] (0.253 µM), 1.06; in test [4] (0.8 µM) it was 0.942. The relative viability was determined as 0.841 in test [4] (2.53 µM) and 0.569 in test [4] (8 µM).

Regarding SK-MES-1, the relative viability was determined as 0.401 in test [1] (first compound 0.08 µM); 0.313 in test [1] (first compound 0.253 µM); 0.407 in test [1] (first compound 0.8 µM); 0.413 in test [1] (first compound 2.53 µM); 0.429 in test [1] (first compound 8 µM); 0.964 in test [2] (0.08 µM). The relative viability in test [2] (0.253 µM) came to 0.997; in test [2] (0.8 µM) it was 1.01; in test [2] (2.53 µM), 0.986; in test [2] (8 µM) it was 1.04; in test [3] (0.08 µM), 1.04; in test [3] (0.253 µM) it was 0.967. The relative viability in test [3] (0.8 µM) is 1.02; in test [3] (2.53 µM), 0.846; in test [3] (8 µM), 0.725; in test [4] (0.08 µM), 1.03; in test [4] (0.253 µM), 0.955; in test [4] (0.8 µM), 0.905. Besides, the figures for the relative viability in test [4] (2.53 µM) and in test [4] (8 µM) were 0.933 and 0.809, respectively.

On to SW 900, for which the relative viability in test [1] (first compound 0.08 µM) came to 0.669; in test [1] (first compound 0.253 µM), 0.543; in test [1] (first compound 0.8 µM) it was 0.585; in test [1] (first compound 2.53 µM), 0.763; in test [1] (first compound 8 µM) it was 0.536; in test [2] (0.08 µM), 0.982. Further, the relative viability in test [2] (0.253 µM) is 0.879; in test [2] (0.8 µM), 0.737; in test [2] (2.53 µM) it was 0.655; in test [2] (8 µM), 0.93; in test [3] (0.08 µM), 0.991; in test [3] (0.253 µM), 1.02. The relative viability in test [3] (0.8 µM) is 1.03; in test [3] (2.53 µM), 1.02; in test [3] (8 µM), 0.896; in test [4] (0.08 µM), 1.01; in test [4] (0.253 µM), 0.793; in test [4] (0.8 µM), 0.763. Besides, the relative viability was found to be 0.748 in test [4] (2.53 µM) and 0.537 in test [4] (8 µM).

With SW 1573, the relative viability in test [1] (first compound 0.08 µM) stood at 0.406; in test [1] (first compound 0.253 µM), 0.44; in test [1] (first compound 0.8 µM), 0.389; in test [1] (first compound 2.53 µM) it was 0.447; in test [1] (first compound 8 µM), 0.632; in test [2] (0.08 µM), 0.969. For the same cell line, the relative viability turned out to be 0.931 in test [2] (0.253 µM); 1.05 in test [2] (0.8 µM); 0.959 in test [2] (2.53 µM); 0.985 in test [2] (8 µM); 1.02 in test [3] (0.08 µM); 0.929 in test [3] (0.253 µM). For the same cell line, the relative viability worked out at 1.14 in test [3] (0.8 µM); 0.865 in test [3] (2.53 µM); 0.85 in test [3] (8 µM); 1.1 in test [4] (0.08 µM); 1.04 in test [4] (0.253 µM); 1.02 in test [4] (0.8 µM). Moreover, the relative viability in test [4] (2.53 µM) was 1.06; in test [4] (8 µM), 0.788.
